Drawing on PubChem BioAssay AID977605 (Broad Institute, 2014), this text covers activation for 64 compounds.

Active and inactive are the calls of the source.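 How the source made its calls: active means fitted curve reaches 40% activation below the top valid tested dose, in every test run; inconclusive means test runs disagree on the call; inactive means the rest, including effects opposite to the expected direction.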

The first assay is described as follows: E-selectin inducers in HUVECs, dose response, imaging, HUVEC, cherry-picked samples (AID 977605).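 Further: signal is the share of imaged cells scored positive for E-selectin.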 Conditions: HUVEC E-selectin immunostaining, at 19.5 µM (top of the series), percent of TNF-alpha response over vehicle.
For `Cc1ccc(S(=O)(=O)NC(Cc2ccccc2)C(=O)O)cc1C` (centres undefined), the activation is -0.133% (inactive).

Consider `CC(=O)c1ccc(N(C(=O)CNC(=O)c2ccco2)C(C(=O)NC2CCCC2)c2ccc(C)o2)cc1` (centres undefined), for which the activation was -0.024% (inactive).

`CCOc1ccc(S(=O)(=O)N2CCC(C(=O)NCc3cccnc3)CC2)cc1`: the activation was -0.239% (inactive). As to `C[C@@H]1CN([C@@H](C)CO)C(=O)Cc2cc(NS(C)(=O)=O)ccc2O[C@H]1CN(C)Cc1ccncc1`, the activation was -0.007% (inactive).

As for `COc1ccc(N2C(=O)c3ccccc3C(C)(C)C2=O)cc1`, the activation is -0.152% (inactive).

Turning to `Cc1ccc(S(=O)(=O)N2CCOCC2)cc1C(=O)NC1CCCC1`, the activation is -0.154% (inactive).

For `COc1ccc(S(=O)(=O)NCC(=O)NCc2cc(=O)n(C)c(=O)n2C)cc1F`, the activation was 0.047% (inactive). As for `C[C@H](CO)N1C[C@H](C)[C@@H](CN(C)C)Oc2ccc(NC(=O)CCCN(C)C)cc2CC1=O`, the activation is -0.172% (inactive). On the same count and under the same terms, to `COC(=O)c1ccc(CNC(=O)c2ccc(OC)c(S(=O)(=O)NC3CCCC3)c2)cc1` belongs -0.105% (inactive); to `C/C=C/c1ccc2c(c1)O[C@H](CN(C)C(=O)CC)[C@@H](C)CN([C@H](C)CO)S2(=O)=O`, 25.5% (inactive); to `C[C@H](CO)N1C[C@H](C)[C@@H](CN(C)S(C)(=O)=O)Oc2ccc(NC(=O)CCCCCC(=O)Nc3ccccc3N)cc2CC1=O`, 0.149% (inactive).

Take `Cc1ccc(S(=O)(=O)N(C)C[C@H]2Oc3ccc(NC(=O)CCCN(C)C)cc3C(=O)N([C@H](C)CO)C[C@H]2C)cc1`: the activation is -0.247% (inactive).

Turning to `C[C@@H]1CN([C@H](C)CO)C(=O)c2cc(NC(=O)Cc3ccccc3)ccc2O[C@H]1CN(C)C(=O)NC1CCCCC1`, the activation is 0.096% (inactive). On the same count and under the same terms, to `CCN(CC)C(=O)c1cn(-c2cccc(OC)c2)c(=O)c2ccccc12` belongs -0.108% (inactive). Take `O=S(=O)(NCc1cccnc1)c1ccc(Cl)c2ccccc12`: the activation was 0.304% (inactive).

Take `CCCN1[C@H](CO)[C@H](c2ccc(C#Cc3ccccc3)cc2)[C@@H]1CNC1CCCC1`: the activation was 4.52% (inactive).

For the compound `COc1ccc2sc(-c3ccccc3OC)c(-c3ccc(O)cc3)c2c1`, the activation was -0.095% (inactive).

Regarding `Cc1ccc(CSc2nc3[nH]ncc3c(=O)[nH]2)cc1`, the activation was 24.6% (inactive). Still for that read-out and setting: to `CN1C(=O)c2cc(NS(C)(=O)=O)ccc2OC[C@@H]2O[C@H](CC(=O)NCc3ccc(-c4ccccc4)cc3)CC[C@@H]21` belongs -0.043% (inactive).

Turning to `CCn1c(SCC(=O)Nc2cccc(C)c2)nc2c(c1=O)SC(C)C2` (centres undefined), the activation was -0.269% (inactive).

With `C[C@H](CO)N1C[C@H](C)[C@H](CN(C)C)Oc2ccc(NC(=O)Cc3cn(C)c4ccccc34)cc2C1=O`, the activation was 8.16% (inactive). For `C[C@@H]1CN([C@@H](C)CO)C(=O)c2cccc(NC(=O)Nc3ccc(F)cc3)c2O[C@@H]1CN(C)Cc1ccncc1`, the activation is -0.005% (inactive). Same read-out and setting: to `C[C@@H]1CN([C@@H](C)CO)C(=O)c2cccc(NS(=O)(=O)c3cn(C)cn3)c2O[C@H]1CN(C)C(=O)Nc1ccc2c(c1)OCO2` belongs -0.015% (inactive); to `C[C@@H]1CN([C@@H](C)CO)C(=O)Cc2cc(NS(=O)(=O)c3ccc(F)cc3)ccc2O[C@H]1CN(C)S(=O)(=O)c1ccc(Cl)cc1`, -0.127% (inactive); to `Cc1noc(C)c1S(=O)(=O)Nc1ccc2c(c1)CC(=O)N([C@H](C)CO)C[C@@H](C)[C@H](CN(C)C(=O)Nc1cccc3ccccc13)O2`, -0.155% (inactive).

In the case of `CC(C)CC#Cc1cnc2c(c1)C(=O)N([C@H](C)CO)C[C@@H](C)[C@H](CN(C)C(=O)c1ccc3c(c1)OCO3)O2`, the activation is -0.021% (inactive).

Consider `COc1ccc(OC)c(NC(=O)c2csc(Cl)c2OC)c1`, for which the activation was 2.39% (inactive). Same read-out and setting: the value for `C[C@H]1CN([C@@H](C)CO)C(=O)c2cccc(NC(=O)Nc3ccc(F)cc3)c2O[C@H]1CN(C)Cc1ccncc1` was 0.058% (inactive); that for `COc1ccccc1NS(=O)(=O)c1c(C)[nH]c(C)c1C(=O)N1CCCC1` was 13.9% (inactive). Same read-out and setting: the value for `C[C@H](CO)N1C[C@H](C)[C@H](CN(C)Cc2ccc(C(=O)Nc3ccccc3N)cc2)Oc2ccc(NS(=O)(=O)c3cccs3)cc2CC1=O` was 6.58% (inactive). Same read-out and setting: the value for `COC(=O)C[C@H]1CC[C@H]2[C@@H](COc3ccc(NC(=O)C4CC4)cc3C(=O)N2C)O1` was 3.57% (inactive). For the compound `C[C@H]1CN([C@@H](C)CO)C(=O)c2cccc(NS(=O)(=O)c3ccc(F)cc3)c2O[C@H]1CN(C)S(=O)(=O)c1cccs1`, the activation is -0.103% (inactive). Same read-out and setting: to `COc1ccccc1CNC(=O)[C@@H]1CCCN1S(=O)(=O)c1ccc(Cl)cc1` belongs -0.15% (inactive).

On to `Cc1c(C(=O)NCc2ccco2)oc2ccccc12`, for which the activation is -0.246% (inactive).

In the case of `COc1ccccc1OCC(=O)Nc1ccc(S(=O)(=O)N2CCN(C)CC2)cc1`, the activation was -0.127% (inactive). On the same count and under the same terms, the value for `O=S1(=O)CC(N2CCN(Cc3ccccc3F)CC2)CN1Cc1cn(Cc2ccccc2)nn1` (centres undefined) was 0.129% (inactive). On the same count and under the same terms, to `CNC[C@H]1Oc2ccc(NS(=O)(=O)c3ccc(OC)cc3)cc2CC(=O)N([C@@H](C)CO)C[C@@H]1C` belongs -0.213% (inactive); to `C[C@@H]1CN([C@H](C)CO)C(=O)Cc2cc(NS(C)(=O)=O)ccc2O[C@@H]1CN(C)S(=O)(=O)c1cn(C)cn1`, 13.4% (inactive). The same measure, in the same setting: the value for `C[C@H]1CN([C@@H](C)CO)C(=O)c2cc(C#Cc3cccc(F)c3)cnc2O[C@@H]1CN(C)C(=O)C1CC1` was -0.134% (inactive). As for `C[C@@H]1CN([C@@H](C)CO)S(=O)(=O)c2ccc(C#Cc3ccccc3)cc2O[C@@H]1CN(C)CC1CC1`, the activation is 0.541% (inactive). Consider `C[C@@H]1CN([C@H](C)CO)C(=O)c2cc(NS(=O)(=O)c3cn(C)cn3)ccc2O[C@H]1CN(C)C(=O)Nc1ccc2c(c1)OCO2`, for which the activation was 0.041% (inactive).

Turning to `Cn1c(CNS(=O)(=O)c2ccc(Cl)cc2)cc(=O)n(C)c1=O`, the activation is -0.279% (inactive).

For `C[C@H](CO)N1C[C@H](C)[C@H](CN(C)Cc2ccc(Cl)c(Cl)c2)Oc2c(NC(=O)CCCCCC(=O)Nc3ccccc3N)cccc2C1=O`, the activation is 0.173% (inactive). Consider `O=C(NC1CCCC1)C(c1ccc(F)cc1)N(C(=O)c1csnn1)c1ccccc1` (centres undefined), for which the activation is 0.654% (inactive).

For `CC(C)N(CCC#N)C(=O)Nc1ccc2c(c1)CCO2`, the activation was -0.194% (inactive). Same read-out and setting: the value for `CNC[C@@H]1Oc2ccc(NS(C)(=O)=O)cc2C(=O)N([C@@H](C)CO)C[C@@H]1C` was -0.177% (inactive); that for `C[C@@H]1CN([C@H](C)CO)C(=O)c2cccc(NS(C)(=O)=O)c2O[C@@H]1CN(C)Cc1ccncc1` was -0.083% (inactive). On to `C[C@@H]1CN([C@@H](C)CO)C(=O)c2cc(NC(=O)Nc3ccc4c(c3)OCO4)ccc2O[C@H]1CN(C)C`, for which the activation was -0.091% (inactive). Same read-out and setting: to `C[C@@H]1CN([C@@H](C)CO)C(=O)Cc2cc(NS(=O)(=O)c3cccs3)ccc2O[C@H]1CN(C)C(=O)Nc1ccc(F)cc1` belongs -0.169% (inactive). In the case of `C[C@H](CO)N1C[C@H](C)[C@@H](CN(C)Cc2ccc(C(F)(F)F)cc2)Oc2c(NS(C)(=O)=O)cccc2C1=O`, the activation is -0.122% (inactive). In the case of `C[C@@H]1CN([C@H](C)CO)C(=O)c2cc(NC(=O)Cn3cnnn3)ccc2O[C@@H]1CN(C)Cc1ccc(Oc2ccccc2)cc1`, the activation is -0.117% (inactive). The same measure, in the same setting: the value for `C[C@@H]1CN([C@@H](C)CO)C(=O)Cc2cc(NC(=O)Cc3ccccc3)ccc2O[C@H]1CN(C)C(=O)Nc1cccc2ccccc12` was -0.158% (inactive); that for `C[C@@H]1CN([C@H](C)CO)C(=O)c2cc(C#Cc3cccc(F)c3)cnc2O[C@H]1CN(C)C(=O)C1CCC1` was 0.008% (inactive); that for `C[C@@H]1CN([C@H](C)CO)C(=O)c2cc(NC(=O)Cc3cn(C)c4ccccc34)ccc2O[C@H]1CN(C)Cc1ccc(Cl)c(Cl)c1` was 4.38% (inactive). Take `OC(CSc1ccc(F)cc1)CN1CCN(c2ccccc2)CC1` (centres undefined): the activation was -0.165% (inactive). On the same count and under the same terms, to `C[C@H]1CN([C@@H](C)CO)C(=O)c2cccc(NC(=O)c3nc4ccccc4s3)c2O[C@@H]1CN(C)Cc1ccc(C(F)(F)F)cc1` belongs -0.231% (inactive).

The same assay, now with this note: HUVEC E-selectin immunostaining, at 21 µM (top of the series), percent of TNF-alpha response over vehicle.
For `CC(C)NC(=O)N(C)C[C@H]1Oc2ccc(NC(=O)CCC(F)(F)F)cc2CC(=O)N([C@@H](C)CO)C[C@H]1C`, the activation was 5.5% (inactive). For the compound `Cc1noc(C)c1S(=O)(=O)Nc1ccc2c(c1)CC(=O)N([C@H](C)CO)C[C@H](C)[C@@H](CN(C)Cc1ccc(-c3ccccc3)cc1)O2`, the activation was -0.276% (inactive). Still for that read-out and setting: the value for `C[C@@H]1CN([C@H](C)CO)C(=O)c2cc(NC(=O)Nc3ccc4c(c3)OCO4)ccc2O[C@H]1CN(C)S(=O)(=O)c1ccccc1` was -0.095% (inactive). Same read-out and setting: to `COc1ccc(S(=O)(=O)N(C)C[C@H]2Oc3ccc(NC(=O)Nc4ccc5c(c4)OCO5)cc3CC(=O)N([C@@H](C)CO)C[C@H]2C)cc1` belongs 0.529% (inactive).

Consider `C[C@@H]1CN([C@H](C)CO)S(=O)(=O)c2ccc(-c3ccncc3)cc2O[C@H]1CN(C)Cc1ccc(Oc2ccccc2)cc1`, for which the activation is 23.2% (inactive).

Take `Cc1noc(C)c1NC(=O)Nc1ccc2c(c1)CC(=O)N([C@@H](C)CO)C[C@@H](C)[C@@H](CN(C)Cc1ccc(Cl)c(Cl)c1)O2`: the activation was 3.17% (inactive). On to `C[C@@H]1CN([C@H](C)CO)C(=O)c2cc(NC(=O)CCCCCC(=O)Nc3ccccc3N)ccc2O[C@H]1CN(C)C(=O)Nc1ccc2c(c1)OCO2`, for which the activation was -0.113% (inactive). On to `Cc1noc(C)c1NC(=O)N(C)C[C@@H]1Oc2ccc(NS(=O)(=O)c3cccs3)cc2CC(=O)N([C@H](C)CO)C[C@@H]1C`, for which the activation was 10.8% (inactive).
